Test results taken from PMC7029871, “Development and validation of a sensitive LC-MS/MS method for the quantitation of IMB-YH-4py5-2H, an antituberculosis candidate, and its application to the pharmacokinetic study” (PLoS ONE, 2020).
“Also recorded” adds a separate entry of the source. Where two headings read alike, the source gives them in different places.

How the values were obtained:
[1] = compared with YH-8; method and reference not given; cited from earlier work
[2] = Distribution in plasma, lung homogenate, ELF and AMs after oral dose; format: in vivo, Sprague-Dawley rats; conditions: rat, single oral dose 100 mg/kg; for concentration at 8 h / concentration at 30 h / concentration at 0.083 h / concentration at 0.5 h: both sexes, Sprague-Dawley
Description: After the oral administration of 100 mg/kg IMB-YH-4py5-2H, rats from each group (six rats per group and three rats per sex) were sacrificed at 5 min, 0.5 h, 8 h, and 30 h. Rat lungs were collected, rinsed with saline, wiped dry, accurately weighed and homogenized with ultrapure water. The homogenate was kept at −20°C until analysis.
As two representative infectious sites in lower respiratory tract infections, lung epithelial lining fluid (ELF) and alveolar macrophages (AMs) were investigated to determine the distribution of IMB-YH-4py5-2H. Freshly collected rat lungs were lavaged three times from the trachea with 5 mL of ice-cold phosphate buffer (pH 7.4). The lavage fluid was centrifuged at 4°C (650 × g, 5 min) to separate AMs from the ELF, immediately. The cell counts of the resuspended AMs were assessed by using the haemocytometer. The AMs were extracted with 1 mL of 0.1 M NaOH for analysis. To calculate the concentrations of IMB-YH-4py5-2H in ELF and AMs, reported data were employed. As reported, the total volume of ELF was estimated to be 393 μL/rat (~200 g body weight), and the intracellular volume of a single AM was 1166 μm^3 [25]. Based on the reported volume of a single AM, the raw data of IMB-YH-4py5-2H concentrations in AMs, expressed as ng/10^5 cells, were converted to the values with the unit of μg/mL (Eq 1), which was consistent with the unit of concentrations in plasma and ELF and easier for comparison.
CAM (μg/mL) is the concentration of IMB-YH-4py5-2H expressed as μg/mL, CAM (ng/10^5 cells) is the concentration with the unit of ng/10^5 cell, and V is the volume of a single AM (1166 μm^3).
The homogenate, ELF, and AM samples were processed as described in “Sample processing” and injected into the LC-MS/MS system for analysis.

[3] = system: intracellular M. tuberculosis H37Rv; assay: Intracellular activity assay in infected macrophages; format: cell-based, Mycobacterium tuberculosis; conditions: for Log10CFU: three-day incubation, infected J744 macrophages, untreated 6.47±0.04
[4] = Metabolic stability assay in human liver microsomes; format: in vitro ADME; conditions: pH 7.4, HLMs 0.1 mg/mL, 37°C, NADPH
Description: IMB-YH-4py5-2H was incubated at 37°C for 0, 15, 30, 45, and 60 min in human liver microsomes (HLMs) for the metabolic stability study. The incubation system included 0.1 mg/mL pooled liver microsomes, 100 mM phosphate-buffered saline (PBS, pH 7.4), NADPH regeneration system (the final concentration contained 3.3 mM glucose-6-phosphate, 1.3 mM NADP^+, 0.4 U/mL glucose-6-phosphate dehydrogenase and 3.3 mM MgCl2), and 1 μM IMB-YH-4py5-2H.
(§1) After incubation, the samples were processed as described in “Sample processing”. All experiments were performed in triplicate. The concentration of IMB-YH-4py5-2H was measured using LC-MS/MS analysis.

CYP2B6 = target: T1, CYP2B6 (Homo sapiens, UniProt P20813); assay: Metabolism by recombinant human P450 enzyme; format: in vitro ADME; conditions: recombinant CYP2B6 0.05 nmol/mL, 1 μM, 30 min
T1 construct: purchased Corning (Woburn, MA, USA)
T1 sequence (P20813 1-491): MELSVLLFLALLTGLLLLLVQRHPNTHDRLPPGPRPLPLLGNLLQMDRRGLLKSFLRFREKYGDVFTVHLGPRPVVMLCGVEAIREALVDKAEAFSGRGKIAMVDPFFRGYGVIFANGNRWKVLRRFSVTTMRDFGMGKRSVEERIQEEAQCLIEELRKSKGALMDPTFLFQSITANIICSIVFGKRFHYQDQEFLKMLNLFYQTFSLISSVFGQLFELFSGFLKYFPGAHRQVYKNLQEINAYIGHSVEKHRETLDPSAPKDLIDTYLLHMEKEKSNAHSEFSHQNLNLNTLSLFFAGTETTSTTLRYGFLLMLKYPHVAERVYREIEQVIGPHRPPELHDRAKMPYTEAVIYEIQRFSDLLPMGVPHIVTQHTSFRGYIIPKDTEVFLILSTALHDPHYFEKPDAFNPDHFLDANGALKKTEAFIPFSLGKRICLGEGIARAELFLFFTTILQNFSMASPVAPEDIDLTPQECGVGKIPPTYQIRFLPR
Description: In addition, to characterize the enzymes that may be involved in microsomal metabolism, IMB-YH-4py5-2H was incubated at 37°C for 30 min with different recombinant human P450 enzymes, i.e., CYP1A2, CYP2A6, CYP2B6, CYP2C8, CYP2C9, CYP2C19, CYP2D6, CYP2E1, CYP3A4 and CYP3A5. The incubation system included CYP isoenzyme at a final concentration of 0.05 nmol/mL, 100 mM PBS (pH 7.4) or 100 mmol/L Tris buffer (pH 7.5, Tris buffer was used in the CYP2C9 and CYP2A6 reaction systems and PBS was used for the other enzymes), NADPH regeneration system, and 1 μM IMB-YH-4py5-2H.
as §1

Rat AMs NR8383 cells = assay: In vitro uptake study in alveolar macrophages; format: cell-based; conditions: 24 h-exposure in 2 μg/mL
Description: Rat AMs NR8383 cells (American Type Culture Collection, Manassas, VA, USA) were grown overnight at 37°C with 5% CO2 in Ham’s F12K medium (Gibco, Grand island, NY, USA) containing 20% fetal bovine serum (FBS, Gibco, Thornton, Australia) in 24-well culture plates (4 × 10^5 cells/well in 1 mL culture medium). After 24 h-exposure to IMB-YH-4py5-2H (2 μg/mL), the culture medium and the subsequent three washes were pooled and processed further for the determination of the extracellular drug concentrations. The cells were then extracted with 0.1 M NaOH to collect the intracellular drug for the LC-MS/MS analysis. All experiments were done in triplicate. The intracellular/extracellular drug concentration ratios were then calculated.

[5] = extracellular concentration of 2 μg/mL

## CN(C)C(=O)/C=C/C(=O)c1ccc(-c2ccncc2)cc1.Cl [IMB-YH-4py5-2H, (E)-N,N-dimethyl-4-oxo-4-(4-(pyridin-4-yl)phenyl)but-2-enamide hydrochloride]
[1]
  water solubility: better water solubility; also recorded: improved water solubility
[2]; alveolar macrophages (AMs), 8 h, converted with reported volume of a single AM (Eq 1), read-out: Concentration, AMs
  concentration at 8 h: 99.7 ± 36.7 µg/mL
[2]; alveolar macrophages (AMs), 30 h, converted with reported volume of a single AM (Eq 1), read-out: Concentration, AMs
  concentration at 30 h: 25.3 ± 19.4 µg/mL
[2]; lung epithelial lining fluid (ELF), 0.083 h, ELF volume taken as 393 μL/rat, read-out: Concentration, ELF
  concentration at 0.083 h: 0.639 ± 0.093 µg/mL
[2]; lung epithelial lining fluid (ELF), 0.5 h, ELF volume taken as 393 μL/rat, read-out: Concentration, ELF
  concentration at 0.5 h: 1.8 ± 0.264 µg/mL
[2]; lung epithelial lining fluid (ELF), 8 h, ELF volume taken as 393 μL/rat, read-out: Concentration, ELF
  concentration at 8 h: 0.121 ± 0.032 µg/mL
[2]; lung epithelial lining fluid (ELF), 30 h, ELF volume taken as 393 μL/rat, read-out: Concentration, ELF
  concentration at 30 h: 0.05 ± 0.045 µg/mL
[2]; lung homogenate, 0.083 h, read-out: Concentration, lung homogenate
  concentration at 0.083 h: 4410 ± 607 ng/g
[2]; lung homogenate, 0.5 h, read-out: Concentration, lung homogenate
  concentration at 0.5 h: 10900 ± 1960 ng/g
[2]; lung homogenate, 8 h, read-out: Concentration, lung homogenate
  concentration at 8 h: 107 ± 22 ng/g
[2]; lung homogenate, 30 h, read-out: Concentration, lung homogenate
  concentration at 30 h: 11 ± 3 ng/g
[2]; plasma, 0.083 h, read-out: Concentration, Plasma
  concentration at 0.083 h: 0.917 ± 0.071 µg/mL
[2]; plasma, 0.5 h, read-out: Concentration, Plasma
  concentration at 0.5 h: 1.06 ± 0.192 µg/mL
[2]; plasma, 8 h, read-out: Concentration, Plasma
  concentration at 8 h: 0.155 ± 0.029 µg/mL
[2]; plasma, 30 h, read-out: Concentration, Plasma
  concentration at 30 h: 0.039 ± 0.012 µg/mL
[2]; 0.083 h
  Concentration, AMs: 166.763±40.110 ng/10^5 cells
[2]; 0.083 h, converted with reported volume of a single AM (Eq 1)
  Concentration, AMs: 1494.295 ± 359.408 µg/mL
[2]; 0.5 h
  Concentration, AMs: 227.198±35.589 ng/10^5 cells
[2]; 0.5 h, converted with reported volume of a single AM (Eq 1)
  Concentration, AMs: 2035.827 ± 318.898 µg/mL
[2]; 8 h
  Concentration, AMs: 11.128±4.099 ng/10^5 cells
[2]; 30 h
  Concentration, AMs: 2.823±2.164 ng/10^5 cells
[3]; 0.5 μg/mL
  Log10CFU: 6.44±0.02 Log10CFU
[3]; 1 μg/mL
  Log10CFU: 6.40±0.05 Log10CFU
[3]; 2 μg/mL
  Log10CFU: 6.02±0.11 Log10CFU
[3]; [5]
  bacterial density reduction on intracellular M. tuberculosis: ~70%
  reduction on intracellular M. tuberculosis: 0.45 log10CFU
[4]
  half-life at 1 μM: < 15 min
CYP2B6
  metabolism by CYP isozyme: high metabolic activity
Rat AMs NR8383 cells
  intracellular to extracellular concentration ratio (I/E ratio): 133.4±12.5
